In patent publication US7132546B2, “Aniline derivatives or salts thereof and cytokine production inhibitors containing the same” (Ishihara Sangyo Kaisha, Ltd., priority 2000, dated 2006):

What was measured:
[1] = test system: interleukin 5 (IL-5) production; experiment: Cytokine production inhibitory effect: IL-5 production by murine spleen cells treated with anti-mouse CD3 antibody and IL-2 (ELISA); type: cell-based, Balb/c mice; settings: test compound 100 ppm, anti-CD3 antibody + IL-2, 40 to 48 hours, read-out: IL-5 production inhibitory ratio (%)
Method: (§1) Murine spleen cells were treated with anti-mouse CD3 antibody and IL-2 to induce cytokine production. The test compounds were added to the cytokine production system to evaluate their inhibitory effect. Namely, anti-mouse CD3 antibody adjusted to from 10 to 20 μg/ml with borate buffered physiological saline (pH 8.5) was pipetted into a 96-well cell culture plate in an amount of 50 μl/well and left to stand at 4° C. for 18 hours. The unreacted solution was removed, washing with Hank's buffer solution was carried out once, and IL-2 adjusted to 10 ng/ml with a RPMI liquid containing 10% fetal bovine serum (FCS) was pipetted in an amount of 50 μl/well. For the negative control group, a solution alone without anti-CD3 antibody nor IL-2 was applied. Then, the diluted solution of each of the test compounds (concentration: 100 ppm unless otherwise specified) was pipetted in an amount of 50 μl/well, and a cell suspension of 1×10^7 cells/ml, prepared from spleen of Balb/c mice (female, 7 to 10 week old) was pipetted thereinto in an amount of 100 μl/well. After cultivation in an incubator (37° C., 5% carbon dioxide gas) for from 40 to 48 hours, the culture supernatant was recovered to measure the cytokine production amount by ELISA method.
(§2) With respect to interleukin 5 (IL-5) as a typical Th2 type cytokine and interferon γ (IFN-γ) as a typical Th1 type cytokine, measurements were carried out by the following methods, respectively. Namely, quantitative determination of IL-5 was carried out by the following ELISA method. First, rat anti-mouse IL-5 antibody (Endogen Code No. MM-550C) as a primary antibody was diluted with carbonate buffer solution (pH 9.5) to 1 μg/ml, and spread in a 96 well plate (IWAKI, Code No. 3860-096) in an amount of 50 μl/well for coating at 4° C. overnight (16 to 24 hours). Then, the plate was subjected to blocking at 37° C. for 2 hours by phosphate buffered physiological saline containing 10% FCS (pH 7.2) (blocking buffer solution) (250 μl/well). The plate was washed with PBS (washing buffer) containing 0.05% Tween 20 (Nacalai Tesque, Code No. 281-51) four times, and a diluted liquid of the culture supernatant was spread in an amount of 50 μl/well, followed by incubation at room temperature for 1 hour. For preparation of a standard line, recombinant mouse IL-5 (R&D systems, Code No. 405-ML) was employed. The plate was washed with a washing buffer four times, and biotin-labeled rat anti-mouse IL-5 antibody (Pharmingen, Code No. 18062D) as a secondary antibody diluted to 0.5 μg/ml with a blocking buffer containing 0.05% Tween 20 was added thereto (50 μl/well), followed by incubation at room temperature for 1 hour. The plate was washed with a washing buffer four times, strept avidin-labeled peroxidase (ProZyme, Code No. CJ30H001) diluted 800 times with a blocking buffer containing 0.05% Tween 20 was added thereto (50 μl/well), followed by reaction at room temperature for 15 minutes. The plate was washed with a washing buffer four times, and a […] substrate solution (SIGMA, Code No. T-8665) was added thereto in an amount of 100 μl/well for color developing for from 10 to 20 minutes. A 1M sulfuric acid solution was added thereto in an amount of 100 μl/well to terminate the reaction, and absorption (wavelength 450 nm) was measured by means of micro plate reader (SPECTRA max, Wako Pure Chemicals Industries, Ltd.). Quantitative determination of IFN-γ was carried out in the same manner as the measurement of IL-5, employing rat anti-mouse IFN-γ antibody (Pharmingen, Code No. 18181D) and biotin labeled rat anti-mouse IFN-γ antibody (Pharmingen, Code NO. 18112D), as a primary antibody and a secondary antibody, respectively. For preparation of a standard line, recombinant mouse IFN-γ (GENZYME, Code No. 3485) was employed. The experiment was carried out in duplicate, and the average of the cytokine production amount was obtained. […]

[2] = test system: interferon γ (IFN-γ) production; experiment: Cytokine production inhibitory effect: IFN-γ production by murine spleen cells treated with anti-mouse CD3 antibody and IL-2 (ELISA); type: cell-based, Balb/c mice; settings: test compound 100 ppm, anti-CD3 antibody + IL-2, 40 to 48 hours, read-out: IFN-γ production inhibitory ratio (%)
Method: as §1, §2

Row | melting point | SMILES | inhibition at 100 ppm [1] | inhibition at 100 ppm [2]
1 | 256 °C | Cc1cc(C23CC4CC(CC(C4)C2)C3)ccc1NC(=O)c1cccc(Cl)c1[N+](=O)[O-] [compound 58] | 97% | 96%
2 | 174 °C | O=C(Nc1ccc(Sc2ncc(C(F)(F)F)cc2Cl)cc1)c1cc([N+](=O)[O-])ccc1Cl [compound 59] | 100% | 100%
3 | 222 °C | Cc1cc(C23CC4CC(CC(C4)C2)C3)ccc1NC(=O)c1cccc([N+](=O)[O-])c1Cl [compound 60] | 96% | 93%
4 | 198 °C | Cc1cc(C23CC4CC(CC(C4)C2)C3)ccc1NC(=O)c1ccccc1 [compound 61] | 79% | 89%
5 | 111 °C | Cc1cc(C23CC4CC(CC(C4)C2)C3)ccc1NC(=O)c1ccc(Cl)c([N+](=O)[O-])c1 [compound 62] | 100% | 100%
6 | 198 °C | O=C(Nc1ccc(Oc2ccccn2)cc1)c1cc([N+](=O)[O-])ccc1Cl [compound 63] | 100% | 100%
7 | 203 °C | O=C(Nc1ccc(Oc2ncc(C(F)(F)F)cc2Cl)cc1)c1cc([N+](=O)[O-])ccc1Cl [compound 64] | 98% | 99%
8 | 195 °C | O=C(Nc1ccc(N2CCOCC2)cc1)c1cc([N+](=O)[O-])ccc1Cl [compound 66] | 95% | 91%
9 | 187 °C | O=C(Nc1ccc(/N=N/c2ccccc2)cc1)c1cc([N+](=O)[O-])ccc1Cl [compound 67] | 99% | 100%
10 | 65 °C | CSc1ccc(Cl)c(C(=O)Nc2ccc(C34CC5CC(CC(C5)C3)C4)cc2C)c1 [compound 68] | 92% | 99%
11 | 180 to 183 °C | O=C(Nc1ccc(Sc2ccccc2)cc1)c1cc([N+](=O)[O-])ccc1Cl [compound 69] | 100% | 100%
12 | 69 °C | Cc1cc(C23CC4CC(CC(C4)C2)C3)ccc1NC(=O)c1cc(C(F)(F)F)ccc1Cl [compound 70] | 98% | 99%
13 | 181 to 183 °C | Cc1ccc(NC(=O)c2ccc([N+](=O)[O-])cc2Cl)c(C)c1 [compound 73] | 64% | 28%
14 | 289 to 290 °C | Cc1cc(C23CC4CC(CC(C4)C2)C3)ccc1NC(=O)c1ccc([N+](=O)[O-])cc1 [compound 74] | 43% | 10%
15 | 96 to 100 °C | Cc1cc(C23CC4CC(CC(C4)C2)C3)ccc1NC(=O)c1cc(S(C)(=O)=O)ccc1Cl [compound 75] | 100% | 100%
16 | 184 to 187 °C | Cc1cc(C23CC4CC(CC(C4)C2)C3)ccc1NC(=O)c1cc(C#N)ccc1Cl [compound 76] | 96% | 96%
17 | 176 to 178 °C | O=C(Nc1ccc(OCc2ccccc2)cc1)c1cc([N+](=O)[O-])ccc1Cl [compound 77] | 74% | 50%
18 | 156 to 157 °C | O=C(Nc1ccc(SCc2ccccc2)cc1)c1cc([N+](=O)[O-])ccc1Cl [compound 78] | 78% | 91%

Row | melting point | SMILES | inhibition at 100 ppm [1] | inhibition at 100 ppm [2]
19 | 176 to 180 °C | O=C(Nc1ccc(CSc2ccccc2)cc1)c1cc([N+](=O)[O-])ccc1Cl [compound 79] | 62% | 90%
20 | 171 °C | O=[N+]([O-])c1ccc(Cl)c(S(=O)(=O)Nc2ccc(Oc3ncc(C(F)(F)F)cc3Cl)cc2)c1 [compound 80] | 100% | 100%
21 | 207 to 208 °C | O=C(Nc1ccc(CSc2ncc(C(F)(F)F)cc2Cl)cc1)c1cc([N+](=O)[O-])ccc1Cl [compound 82] | 90% | 99%
22 | 203 to 206 °C | O=C(Nc1ccc(-c2ccccc2)cc1)c1cc([N+](=O)[O-])ccc1Cl [compound 83] | 90% | 76%
23 | 143 °C | N#Cc1ccc(Cl)c(C(=O)Nc2ccc(Oc3ccccc3)cc2)c1 [compound 85] | 91% | 86%
24 | 209 to 212 °C | N#Cc1ccc(Cl)c(C(=O)Nc2ccc(Oc3ncc(C(F)(F)F)cc3Cl)cc2)c1 [compound 86] | 87% | 29%
25 | 229 to 231 °C | N#Cc1ccc(Cl)c(C(=O)Nc2ccc(Sc3ncc(C(F)(F)F)cc3Cl)cc2)c1 [compound 87] | 100% | 100%
26 | 221 °C | CS(=O)(=O)c1ccc(Cl)c(C(=O)Nc2ccc(Oc3ncc(C(F)(F)F)cc3Cl)cc2)c1 [compound 88] | 72% | 17%
27 | 168 °C | O=C(Nc1ccc(Oc2ccc(C(F)(F)F)cc2Cl)cc1)c1cc([N+](=O)[O-])ccc1Cl [compound 89] | 87% | 99%
28 | 224 to 226 °C | O=[N+]([O-])c1ccc(Cl)c(S(=O)(=O)Nc2ccc(Sc3ncc(C(F)(F)F)cc3Cl)cc2)c1 [compound 90] | 100% | 100%
29 | 219 to 221 °C | Cc1cc(Oc2ncc(C(F)(F)F)cc2Cl)ccc1NC(=O)c1cc([N+](=O)[O-])ccc1Cl [compound 91] | 53% | 1%
30 | 201 to 204 °C | O=C(Nc1ccc(CO)cc1)c1cc([N+](=O)[O-])ccc1Cl [compound 92] | 99% | 100%
31 | 224 to 228 °C | O=C(Nc1ccc(C23CC4CC(CC(C4)C2)C3)cc1)c1cc([N+](=O)[O-])ccc1F [compound 93] | 100% | 100%
32 | 273 to 275 °C | O=C(Nc1ccc(C23CC4CC(CC(C4)C2)C3)cc1)c1cc([N+](=O)[O-])ccc1Br [compound 94] | 85% | 53%
33 | 167 to 172 °C | O=C(Nc1ccc(Oc2ccc(C(F)(F)F)cc2Cl)cc1)c1cc([N+](=O)[O-])ccc1Br [compound 96] | 100% | 100%
34 | 131 to 134 °C | O=C(Nc1ccc(CCOc2ncc(C(F)(F)F)cc2Cl)cc1)c1cc([N+](=O)[O-])ccc1Cl [compound 97] | 77% | 84%
35 | 168 to 170 °C | O=C(Nc1ccc(Oc2ncc(C(F)(F)F)cc2Cl)cc1)c1cc([N+](=O)[O-])ccc1F [compound 98] | 96% | 99%
